Assay results from patent US6716858B1, “Methods for inhibiting diabetic complications” (Kansas University Medical Center, priority 1995, dated 2004).
Where two headings read alike, the source gives them in different places.

How the values were obtained:
[1] = tested on: Sprague-Dawley rats, glomerular changes; assay type: in vivo, rat; conditions: for effect of treatment on loss of Heparan Sulfate Proteoglycan side-chain staining (mAb JM-403): rats injected with Amadori-RSA or AGE-RSA (both cases); for microalbuminuria / albuminuria: rats receiving Amadori-RSA or AGE-RSA
Method: Male Sprague-Dawley rats (Sasco, 100 g) were used. After a 1 week adaptation period, rats were placed in metabolic cages to obtain a 24 hour urine specimen for 2 days before administration of injections. Rats were then divided into experimental and control groups and given tail vein injections with either saline, unmodified RSA (50 mg/kg), Amadori-RSA (50 mg/kg), NaBH4-reduced Amadori-RSA (50 mg/kg), or AGE-RSA (50 mg/kg).
Rats injected with Amadori-RSA and AGE-RSA were then either left untreated, or further treated by the administration of either aminoguanidine (AG; 25 mg/kg), pyridoxamine (PM; 25 mg/kg), or a combination of AG and PM (10 mg/kg each) through the drinking water. Body weight and water intake of the rats were monitored weekly in order to adjust dosages. At the conclusion of the experimental study the rats were placed in metabolic cages to obtain 24 hour urine specimen for 2 days prior to sacrificing the animals.
After perfusion with saline, kidney sections were fixed in ice-cold 10% neutral buffered formalin. Paraffin-embedded tissue sections from all rat groups (n=4 per group) were processed for staining with Harris' alum hematoxylin and eosin (H&E), perodic acid/Schiff reagent (PAS), and alcian blue (pH 1.0 and pH 2.5) stains for histological examination. The alcian blue sections were scored by two investigators in a blinded fashion.
Parrafin-embedded sections were deparaffinized and then blocked with 10% goat serum in PBS for 30 min at room temperature. […] The sections were then rinsed for 30 min with PBS in the dark, mounted in aqueous mounting media for immunocytochemistry (Biomeda), and cover slipped. Sections were scored in a blinded fashion. Kidney sections were evaluated by the number and intensity of glomerular staining in 5 regions around the periphery of the kidney. Scores were normalized for the immunofluorescent score per 100 glomeruli with a scoring system of 0-3.
All animals studies were carried out in conformance with institutional guidelines for animal research protocols. Male Sprague-Dawley 100 g rats (Sasco Co., Omaha Nebr.) were used in these studies. After a 1 week adaptation period, rats were placed in metabolic cages for 2 days to get two 24 hour urine specimens before starting treatment. Rats were then given daily single tail vein injections for 6 weeks according to the following treatment groups: saline, unmodified RSA (50 mg/kg), Amadori-RSA (50 mg/kg), NaBH4-reduced Amadori-RSA (50 mg/kg), and AGE-RSA (50 mg/kg). Groups of rats injected with Amadori-RSA or AGE-RSA were also administered aminoguanidine (25 mg/kg/day), pyridoxamine (25 mg/kg/day), a combination of the two (10 mg/kg/day each), or with nothing added to the drinking water. Body weight and water intake of the rat were monitored weekly in order to adjust dosages. At the conclusion of the study, the rats were placed in metabolic cages for two days to get two 24 hour urine specimens before sacrificing the animals.
Total protein in urine was determined by Bio-Rad assay. Albumin in urine was determined by competitive ELISA using rabbit anti-rat serum albumin (Cappell) as primary antibody (1:2000) and goat anti-rabbit IgG (Sigma) as a secondary antibody (1:2000). Urine was tested with Multistix 8 SG (Miles) for glucose, ketone, specific gravity, blood, pH, protein, nitrite and leukocytes. Creatinine measurements were performed with a Beckman creatinine analyzer II. Intracardiac blood samples were collected before termination and were used in the determination of creatinine clearance, blood glucose (glucose oxidase, Sigma), fructosamine (nitroblue tetrazolium, Sigma), and glycated Hb (Glycotest II analytical boronate columns, Pierce).
After perfusion with saline, kidney sections were fixed in ice-cold 10% neutral buffered formalin. […]

[2] = tested on: post-Amadori AGE formation, BSA Amadori intermediate; assay: Interrupted (post-Amadori) ribose glycation assay, BSA; assay type: biochemical, bovine
Method: ELISA detection of AGE products. The general method of Engvall (1981, Methods Enzymol. 70:419-439) was used to perform the ELISA. Typically, glycated protein samples were diluted to approximately 1.5 ug/ml in 0.1 M sodium carbonate buffer of pH 9.5 to 9.7. The protein was coated overnight at room temperature onto 96-well polystyrene plates by pippetting 200 ul of the protein solution in each well (0.3 ug/well). After coating, the protein was washed from the wells with a saline solution containing 0.05% Tween-20. The wells were then blocked with 200 ul of 1% casein in carbonate buffer for 2 h at 37° C. followed by washing. Rabbit anti-AGE antibodies were diluted at a titer of about 1:350 in incubation buffer, and incubated for 1 h at 37° C., followed by washing. In order to minimize background readings, antibodies R479 used to detect glycated RNase were raised against glycated BSA, and antibodies R618 used to detect glycated BSA and glycated Hb were raised against glycated RNase. An alkaline phosphatase-conjugated antibody to rabbit IgG was then added as the secondary antibody at a titer of 1:2000 or 1:2500 (depending on lot) and incubated for 1 h at 37° C., followed by washing. The p-nitrophenylphosphate substrate solution was then added (200 ul/well) to the plates, with the absorbance of the released p-nitrophenolate being monitored at 410 nm with a Dynatech MR 4000 microplate reader.
Glycation was first carried out by incubating protein (10 mg/ml) with 0.5 M ribose at 37° C. in 0.4 M phosphate buffer at pH 7.5 containing 0.2% sodium azide for 24 h in the absence of inhibitors. Glycation was then interrupted to remove excess and reversibly bound (Schiff base) sugar by extensive dialysis against frequent cold buffer changes at 4° C. The glycated intermediate samples containing maximal amount of Amadori product and little AGE (depending on protein) were then quickly warmed to 37° C. without re-addition of ribose. This initiated conversion of Amadori intermediates to AGE products in the absence or presence of various concentrations (typically 3, 15 and 50 mM) of prospective inhibitors. Aliquots were taken and frozen at various intervals for later analysis. The solutions were kept in capped tubes and opened only to remove timed aliquots that were immediately frozen for later carrying out the various analyses.

[3] = tested on: glycation of ribonuclease A (RNase); assay: Uninterrupted glycation of ribonuclease A with glucose, anti-AGE ELISA; assay type: biochemical, bovine; conditions: RNase 1 mg/ml, 1.0 M glucose, 6 weeks; inhibitors 0.5, 3, 15 and 50 mM
Method: Uninterrupted Glycation with Glucose Bovine serum albumin, ribonuclease A, and human hemoglobin were incubated with glucose at 37° C. in 0.4 M sodium phosphate buffer of pH 7.5 containing 0.02% sodium azide. The protein, glucose (at 1.0 M), and prospective inhibitors (at 0.5, 3, 15 and 50 mM) were introduced into the incubation mixture simultaneously. Solutions were kept in the dark in capped tubes. Aliquots were taken and immediately frozen until analyzed by ELISA at the conclusion of the reaction. The incubations were for 3 weeks (Hb) or 6 weeks (RNase, BSA).
ELISA detection of AGE products. The general method of Engvall (1981, Methods Enzymol. 70:419-439) was used to perform the ELISA. Typically, glycated protein samples were diluted to approximately 1.5 ug/ml in 0.1 M sodium carbonate buffer of pH 9.5 to 9.7. […] In order to minimize background readings, antibodies R479 used to detect glycated RNase were raised against glycated BSA, and antibodies R618 used to detect glycated BSA and glycated Hb were raised against glycated RNase. […] The p-nitrophenylphosphate substrate solution was then added (200 ul/well) to the plates, with the absorbance of the released p-nitrophenolate being monitored at 410 nm with a Dynatech MR 4000 microplate reader.

[4] = Amadori-RSA injected rats, 6 weeks
[5] = rats injected with Amadori-RSA or AGE-RSA
[6] = 24 h in 0.5 M ribose, then free ribose removed, 37° C.
[7] = 6 weeks, n = 4, average with standard error

Compound	effect of treatment on glomerular albumin cross-linking ([1]; AGE-RSA injected rats)	effect of treatment on glomerular volume (GV) ([1]; AGE-RSA injected rats, 6 weeks)	effect of treatment on HS loss ([1]; Amadori-RSA injected rats)	effect of treatment on glomerular volume (GV) [1, 4]	effect of treatment on elevated glomerular staining for RSA [1, 5]	effect of treatment on increase in average glomerular volume [1, 5]	inhibition of post-Amadori AGE formation ([2]; 50 mM inhibitor)	inhibition of post-Amadori AGE formation [2, 6]	Alcian Blue pH 1.0, scoring of glomerular staining (sulfated glycosaminoglycans) [1, 7]	Alcian Blue pH 2.5, scoring of glomerular staining (acidic glycosaminoglycans) [1, 7]	HS core protein (Ab BL-31), scoring of glomerular staining [1, 7]	effect of treatment on glomerular albumin cross-linking ([1]; Amadori-RSA injected rats)	Creat C-2wk ([1]; creatinine clearance at 2 weeks, n = 4)	Creat C-6wk ([1]; creatinine clearance at 6 weeks, n = 4)	effect of treatment on reduced Heparan Sulfate Proteoglycan Core protein staining [1, 5]	effect of treatment on loss of Heparan Sulfate Proteoglycan side-chain staining (mAb JM-403) [1]	effect of treatment on loss of Heparan Sulfate Proteoglycan side-chain staining (mAb JM-403) ([1]; listed as PM)	microalbuminuria / albuminuria ([1]; 6 weeks)	microalbuminuria / albuminuria ([1]; 6 weeks, listed as PM)	inhibition of antigenic AGE formation (ELISA) [3]
N=C(N)NN [aminoguanidine, reference compound]	intermediate results but did not lead to statistically significant differences from either the controls or from the untreated subgroup	significant elevation in GV persisted	appeared to not prevent this loss	No statistically significant differences	not with AG	No effect	about 20%	Comparable results	–	–	–	–	–	–	–	–	–	–	–	–
Cc1ncc(CO)c(CN)c1O [pyridoxamine]	completely blocked	completely prevented	–	no significant changes from controls	Significant reduction of this effect	A significant reduction of this effect	–	–	2.62 ± 0.24	1.56 ± 0.21	234 ± 8	significantly lower cross-linking than Aminoguanidine	0.66 ± 0.07 ml/(min*100g)	0.66 ± 0.17 ml/(min*100g)	A reduction of this effect	completely prevented this loss	A significant reduction of this effect	very low intra-group scatter and to the lowest means	none was seen if PM was co-administered	more effective that aminoguanidine
Cc1ncc(C[n+]2csc(CCO[P@](=O)(O)OP(=O)(O)O)c2C)c(N)n1 [thiamine pyrophosphate]	–	–	–	–	–	–	–	inhibited AGE formation more effectively than the other B1 derivatives	–	–	–	–	–	–	–	–	–	–	–	more effective that aminoguanidine
